“Also recorded” adds a separate entry of the source. Where two headings read alike, the source gives them in different places.
Experiments:
[1] = tested on: wild type MCF-7 human breast cancer cells; assay: MCF-7 proliferation assay, wild type cells (cytofluor); assay type: cell-based; settings: WT MCF-7 breast cancer cells
Text: (§1) Tables 1 and 2 show the concentrations required for IC50 inhibition in cultures of wild type and multi-drug resistant MCF-7 human breast cancer cells, respectively. These tables show polyoxotungstates used on MCF-7 proliferation assay.

[2] = tested on: multi-drug resistant MCF-7 ADR human breast cancer cells; assay: MCF-7 proliferation assay, multi-drug resistant cells (cytofluor); assay type: cell-based; settings: ADR MCF-7 breast cancer cells
Text: as §1

[3] = Toxicity in mice (body weight, necropsy); assay type: in vivo; settings: subcutaneously, weekly for 10 weeks
Procedure: We have identified a class of heteropolyanions that have anticancer activity. This class consists of metal ion derivatives of polyoxotungstate, hereinafter referred to as HPA. These heteropolyanions (HPA) are synthesized by methods outlined in Heteropoly and Isopoly Oxometalates, Michael Thor Pope, Springer Verlag, Berlin, Germany 1983. They are water soluble and stable at room temperature and are effective at very low concentrations (1 μM) in cell cultures. […] Oral and intramuscular administration were also tested. Drugs were dissolved in aqueous solutions for administration. Preferred HPA drugs are HPA-Na and HPA-Sm.

E-FABP [4] = assay: RT-PCR of E-FABP expression in LNCAP cells grown with drug; assay type: cell-based, human; settings: 1 uM
Procedure: (§2) FIG. 18 is a graph showing LNCAP cells grown in the presence of 1 uM HPA-Na for 48 hr. At that time, cells were harvested, RNA prepared by the method of TRIZOL, and levels of various FABPs were measured by RT-PCR.
(§3) For RT-PCR, equal amounts of RNA were used for the reverse transcriptase reaction to make cDNA. The cDNA was then used for the PCR reaction using specific primers for the different fatty acid binding proteins. Also, PCR was performed for genes such as Actin whose level stays generally the same in all the samples. The PCR products were resolved on agarose gel and the picture under UV was saved in the computer as a TIFF file. Using the NIH Image Program 1.6–1, gel optical units were digitized and obtained for each band observed. The values of the FABP PCR fragments were therefore normalized to the Actin values for each sample. In the figures, the data is represented in Optical Density Units versus the FABP and cell type from Breast and Prostate tissues.
(§4) The RNA was isolated using the Trizol method and RT-PCR analysis of the proteins was performed by using primers specific for each FABP. […] The method of quantitation of PCR product was as follows: for internal quantitation control actin primers was used, all the gels were scanned in a gel scanner and digitized using the NIH-Image program for quantitation. […]

brain-FABP = assay: RT-PCR of brain-FABP expression in MCF-7 cells grown with drug; assay type: cell-based, human; settings: 1 uM, 48 hr
Procedure: (§5) FIGS. 17a and 17b are graphs showing MCF-7 cells grown in the presence of 1 uM HPA-Na for 48 hr and RNA isolated for FABP measurement.
as §3
as §4, with “FABP. Equal amount of RNA was used for RT-PCR and PCR master mix was used to avoid any handling errors.” for “FABP.”

A-FABP [5] = assay: RT-PCR of A-FABP expression in LNCAP cells grown with drug; assay type: cell-based, human; settings: 1 uM, 48 hr, listed as HPA-Na
Procedure: as §2, §3, §4

LNCAP prostate cells = assay: Growth of prostate cancer cells (Cytofluor); assay type: cell-based, human; settings: prostate (and breast) cancer cells
A-FABP [6] = assay: RT-PCR of A-FABP expression in MCF-7 cells grown with drug; assay type: cell-based, human; settings: 1 uM, 48 hr
Procedure: as §5, §3
as §4, with “FABP. Equal amount of RNA was used for RT-PCR and PCR master mix was used to avoid any handling errors.” for “FABP.”

E-FABP [7] = assay: RT-PCR of E-FABP expression in MCF-7 cells grown with drug; assay type: cell-based, human; settings: 1 uM, 48 hr
Procedure: as §5, §3
as §4, with “FABP. Equal amount of RNA was used for RT-PCR and PCR master mix was used to avoid any handling errors.” for “FABP.”

I-FABP = assay: RT-PCR of I-FABP expression in LNCAP cells grown with drug; assay type: cell-based, human; settings: in the presence of drug, listed as HPA-Na
Procedure: as §2, §3, §4

[8] = experiment 1, read-out: IC50 (Exp. 1)
[9] = experiment 2, read-out: IC50 (Exp. #2)

Substance: K12[TmP5W30O110] · nH2O
- IC50 [1, 8]: 0.25 µM
- IC50 [1, 9]: 10 µM
- IC50 [2, 8]: 4 µM
- IC50 [2, 9]: 6 µM

Substance: K12[HoP5W30O110] · nH2O
- IC50 [1, 8]: 3 µM
- IC50 [1, 9]: 4.5 µM
- IC50 [2, 8]: 0.25 µM
- IC50 [2, 9]: 4 µM

Substance: K12[TbP5W30O110] · nH2O
- IC50 [1, 8]: 1 µM
- IC50 [1, 9]: 8 µM
- IC50 [2, 8]: 3.5 µM
- IC50 [2, 9]: 4.9 µM

Substance: K12[YbP5W30O110] · nH2O
- IC50 [1, 8]: 3.8 µM
- IC50 [1, 9]: 3.7 µM
- IC50 [2, 8]: 5 µM
- IC50 [2, 9]: 6.3 µM

Substance: K13[CaP5W30O110] · nH2O
- IC50 [1, 8]: 4.5 µM
- IC50 [1, 9]: 5 µM
- IC50 [2, 8]: 3.8 µM
- IC50 [2, 9]: 6.8 µM

Substance: K12.5Na1.5[NaP5W30O110] · nH2O
- toxicity in mice (weights, necropsy) [3]: no indications of toxicity was observed
- change in level of E-FABP (E-FABP [4]): altered in a similar manner
- IC50 [1, 8]: 3.8 µM
- IC50 [1, 9]: 3.5 µM
- change in level of brain-FABP (brain-FABP): decreased significantly
- change in level of A-FABP (A-FABP [5]): increased the levels of A-FABP in LNCAP to a level similar to the normal values; also recorded: increasing A-FABP; also recorded: markedly elevated
- effect on proliferation of cancer cells (LNCAP prostate cells): blocked
- change in level of A-FABP (A-FABP [6]): dramatically increased
- change in level of E-FABP (E-FABP [7]): dramatically increased
- IC50 [2, 9]: 2.1 µM
- change in level of I-FABP (I-FABP): decreasing I-FABP; also recorded: decrease

Substance: K12[BiP5W30O110] · nH2O
- IC50 [1, 9]: 5 µM
- IC50 [2, 8]: 3 µM
- IC50 [2, 9]: 2.5 µM

Substance: K12[SmP5W30O110] · nH2O
- IC50 [1, 8]: 0.5 µM
- IC50 [1, 9]: 2.5 µM
- IC50 [2, 8]: 3.8 µM
- IC50 [2, 9]: 4.1 µM

Substance: K12[UP5W30O110] · nH2O
- IC50 [1, 8]: 1 µM
- IC50 [1, 9]: 10 µM
- IC50 [2, 8]: 5.8 µM
- IC50 [2, 9]: 4.8 µM

Substance: K12[LuP5W30O110] · nH2O
- IC50 [1, 8]: 1 µM
- IC50 [1, 9]: 5 µM
- IC50 [2, 8]: 4.5 µM
- IC50 [2, 9]: 5.5 µM

Substance: K12[DyP5W30O110] · nH2O
- IC50 [1, 8]: 4.3 µM
- IC50 [1, 9]: 5 µM
- IC50 [2, 8]: 3.8 µM
- IC50 [2, 9]: 2.3 µM

Substance: K12[EuP5W30O110] · nH2O
- IC50 [1, 9]: 4.5 µM
- IC50 [2, 8]: 0.25 µM
- IC50 [2, 9]: 3.8 µM

Substance: K12[ErP5W30O110] · nH2O
- IC50 [1, 8]: 4.3 µM
- IC50 [1, 9]: 6 µM
- IC50 [2, 8]: 4 µM
- IC50 [2, 9]: 1 µM

Substance: K12[GdP5W30O110] · nH2O
- IC50 [1, 8]: 2 µM
- IC50 [1, 9]: 8 µM
- IC50 [2, 8]: 4.3 µM
- IC50 [2, 9]: 4.6 µM

Substance: K12[CeP5W30O110] · nH2O
- IC50 [1, 8]: 4.3 µM
- IC50 [1, 9]: 5 µM
- IC50 [2, 8]: 3.8 µM
- IC50 [2, 9]: 3 µM
